Patent US10905665B2, “Chemical modulators of signaling pathways and therapeutic use” (Duke University, priority 2015, dated 2021)
Like-named read-outs stand apart in the source and are kept apart here.

How the values were obtained:
[1] = test system: Wnt/β-catenin transcription; experiment: Wnt-3A-stimulated TOPFlash reporter assay in HEK293 cells; type: cell-based; conditions: Homo sapiens, Wnt-3A conditioned medium, 8 hour treatment, read-out: Inhibition Wnt/β-catenin transcription TopFlash IC50
Procedure: Stably transfected cells were seeded in 100 μl of cell growth medium/well in 96-well plates at 100% confluency. Fifty microliters of Wnt-3A conditioned medium containing the chemical compounds to be tested or DMSO was added to each well. After an 8 hour treatment, the cells were washed once with PBS and lysed with 55 μl of Passive Lysis Buffer supplied in the Dual-Luciferase Reporter Assay kit (Promega, Madison, Wis.). Twenty-five microliters of cell lysate was used for measuring luciferase activity in a 96-well plate reader (FluoStar Optima, BMG Labtech, Chicago, Ill.). Data were fit using GraphPad Prism (mean±SEM, n>=2).

[2] = Pharmacokinetic studies, niclosamide in mouse plasma; type: in vivo, CD1 mice; conditions: mice
Procedure: For niclosamide dosed IV, niclosamide was dissolved in a solvent of 67% polyethylene glycol 400 and 33% N,N-dimethylacetamide at a concentration of 3.27 mg/mL and tail vein injected at a dose of 2.6 mg/kg of body weight. Blood samples were obtained at predose and at 0.08, 0.17, 0.33, 0.67, 1.5, 4, 8, 12 hours after drug administration. For oral dosing of compound 74, compound 74 was dissolved in a solvent of 90% polyethylene glycol 300 and 10% 1-methyl-2-pyrrolidinone at a concentration of 20 mg/mL and gavaged at a dose of 200 mg/kg of body weight. Blood samples were obtained at predose and at 0.25, 0.5, 1, 2, 4, 8 hours after drug administration. For oral dosing of compound 61, compound 61 was dissolved in corn oil at a concentration of 20 mg/mL and dosed at 200 mg/kg of body weight. Blood samples were obtained at predose and at 0.25, 0.5, 0.75, 1, 1.5, 4, 8, 12, 24, 48, and 72 hours after drug administration. All the solvent reagents were purchased from Sigma-Aldrich (St. Louis, Mo., USA). CD1 mice were used in the pharmacokinetic studies. Quantification of niclosamide in mouse plasma was done by LC/MS-MS using methods similar to those previously published (Osada, T.; Chen, M. Y.; Yang, X. Y.; Spasojevic, I.; Vandeusen, J. B.; Hsu, D.; Clary, B. M.; Clay, T. M.; Chen, W.; Morse, M. A.; Lyerly, H. K. Cancer Research 2011, 71, 4172.).

[3] = molecular target: T1, Frizzled1-GFP (Homo sapiens, UniProt Q9UP38); experiment: Frizzled internalization assay (Fzd1-GFP); type: cell-based; set-up: key: Punctate similar to control=0; trace amount of punctate greater than control=1; moderate=3; strong=5; conditions: 6 hours, 0-5 point scale
T1 construct: expressed in transfected cells
T1 sequence (Q9UP38 70-647): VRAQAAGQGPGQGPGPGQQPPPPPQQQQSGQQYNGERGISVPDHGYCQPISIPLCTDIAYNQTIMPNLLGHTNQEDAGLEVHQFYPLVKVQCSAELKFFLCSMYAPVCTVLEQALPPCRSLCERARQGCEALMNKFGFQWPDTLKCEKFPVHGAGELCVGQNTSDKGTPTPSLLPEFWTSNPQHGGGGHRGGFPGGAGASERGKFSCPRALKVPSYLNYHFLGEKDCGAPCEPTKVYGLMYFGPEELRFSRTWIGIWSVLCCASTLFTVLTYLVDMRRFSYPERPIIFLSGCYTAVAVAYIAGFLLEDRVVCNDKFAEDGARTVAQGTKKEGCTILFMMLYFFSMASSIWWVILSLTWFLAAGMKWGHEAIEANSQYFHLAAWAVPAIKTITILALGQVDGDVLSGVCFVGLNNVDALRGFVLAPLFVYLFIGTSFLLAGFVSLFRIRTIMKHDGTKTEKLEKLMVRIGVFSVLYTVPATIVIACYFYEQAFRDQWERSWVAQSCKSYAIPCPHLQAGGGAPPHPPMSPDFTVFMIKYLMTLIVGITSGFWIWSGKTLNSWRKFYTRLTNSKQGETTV
Procedure: The Fzd1-GFP assay was performed following a procedure similar to previously published work (Chen, M. Y.; Wang, J. B.; Lu, J. Y.; Bond, M. C.; Ren, X. R.; Lyerly, H. K.; Barak, L. S.; Chen, W. Biochemistry 2009, 48, 10267). Cells stably expressing Frizzled1-GFP plated in confocal dishes were treated, after 24 hours, with 12.5 μM of test compound or DMSO for 6 hours at 37° C. followed by fixation with 4% paraformaldehyde. The cells were then examined by microscopy using a LSM 510-Meta confocal microscope (Carl Zeiss, Thornwood, N.Y., USA) equipped with 40× and 100× apo chromat objectives. YFP was excited using a 488-nm argon laser line. Images were processed using the LSM software Image Browser (CarlZeiss, Thornwood, N.Y., USA). Plates were read twice in blinded fashion using a 0-5 point scale. ^aPunctate similar to control=0, trace amount of punctate greater than control=1, moderate=3, strong=5.

[4] = test system: β-catenin; experiment: Western blot of cytosolic β-catenin in HCT-116 cells; type: cell-based; conditions: Homo sapiens, 2.0 μM compound, read-out: Remaining cytosolic β-catenin
Procedure: Western blots were performed following a procedure similar to previously published work (Osada, T.; Chen, M. Y.; Yang, X. Y.; Spasojevic, I.; Vandeusen, J. B.; Hsu, D.; Clary, B. M.; Clay, T. M.; Chen, W.; Morse, M. A.; Lyerly, H. K. Cancer Research 2011, 71, 4172). HCT-116 cells were grown to about 80% confluency in poly-D-lysine coated six-well plates 48 hours before treatment and followed by 2.0 μM compounds or DMSO incubation for 18 hours in growth medium. After treatment, the cytosolic fraction was isolated as described (Osada, T.; Chen, M. Y.; Yang, X. Y.; Spasojevic, I.; Vandeusen, J. B.; Hsu, D.; Clary, B. M.; Clay, T. M.; Chen, W.; Morse, M. A.; Lyerly, H. K. Cancer Research 2011, 71, 4172). Immunoblots using antibodies to […] (E-5, Santa Cruz Biotechnology catalog number sc-7963) was used to detect β-catenin protein levels in the cytosol, and immunoblots using antibodies to β-actin (C-4, Santa Cruz Biotechnology, catalog number SC-47778) was used for loading controls.
Inhibition of Wnt signaling was determined by analyzing the reduction of cytosolic β-catenin by Western blot (FIG. 1, 2).

[5] = test system: colon cancer cell line HCT116; experiment: Cell proliferation assay (MTS); type: cell-based; conditions: for IC50: Homo sapiens, HCT-116, HCT116, 72 hours, 0.04 to 10 μM, read-out: Anti-proliferation IC50 (μM), MTS assay
Procedure: The colon cancer cell line HCT116 was used in the cell proliferation assay. The cells were plated in 100 μl of growing medium/well in 96-well plates at 5,000 cells per well and treated with compounds from 0.04 to 10 μM for 72 hours, after which point the cells were analyzed by colorimetric MTS assay (Promega, Madison, Wis., USA). Data were fit using GraphPad Prism (mean±SEM, n 3).

[6] = test system: High Fat Diet (HFD)-Induced Hepatic Steatosis; experiment: Reduction of high fat diet (HFD)-induced hepatic steatosis; type: in vivo, C57BL/6J mice; conditions: 200 mg/kg oral gavage, three months
Procedure: Five week old male C57BL/6J mice were fed with chow or high fat diet for two months, followed by same diet and oral gavage of vehicle (corn oil) or compound 61 at 200 mg/kg for three months (daily for 6 days a week from Monday to Saturday). Liver tissue samples were collected after the three month treatment. Pictures shown in FIG. 9 are representative liver sections stained with H&E. A. Chow mice with vehicle; B. Chow mice with compound 61; C. HFD mice with vehicle; D. HFD mice with compound 61. […] The white fat deposits look similar in both panel A and B. However, when mice were fed a high fat diet (panel C), a large amount of white fatty deposits can be seen along with a large amount of dysplastic liver tissue.

[7] = niclosamide dosed orally as a solution at 200 mg/kg, reported (Osada 2011); cited from earlier work

In the case of `O=c1oc2ccc(Cl)cc2c(=O)n1-c1ccc(C(F)(F)F)cc1` [Compound 74, 6-chloro-3-(4-(trifluoromethyl)phenyl)-2H-benzo[e][1,3]oxazine-2,4(3H)-dione], the IC50 ([1]; HEK293, 8 h) is reported as 320 ± 30 nM and the “Pharmacokinetic properties after oral administration, in words” value [2] is reported as “poor pharmacokinetic properties”.
With `O=c1oc2ccc(Cl)cc2c(=O)n1-c1ccc(C(F)(F)F)cc1Cl` [Compound 73, 6-Chloro-3-(2-chloro-4-(trifluoromethyl)phenyl)-2H-benzo[e][1,3]oxazine-2,4(3H)-dione] the “Fzd1-GFP internalization @12.5 μM” value [3] was 5, the IC50 ([1]; HEK293, 8 h) was 330 ± 100 nM and the activity at 2 µM ([4]; HCT-116, 18 h) was 9%. The IC50 [5] was 0.55 ± 0.07 µM.
For `CCCCCCCC(=O)Oc1ccc(Cl)cc1C(=O)Nc1ccc([N+](=O)[O-])cc1Cl` [Compound 61, 4-Chloro-2-((2-chloro-4-nitrophenyl)carbamoyl)phenyl octanoate], the “Fzd1-GFP internalization @12.5 μM” value [3] was 5, the IC50 ([1]; HEK293, 8 h) was 230 ± 60 nM and the activity at 2 µM ([4]; HCT-116, 18 h) was 8%. For the same compound, the IC50 [5] was 0.61 ± 0.11 µM, the “Plasma exposure of niclosamide compared to 200 mg/kg niclosamide dosed orally, in words” value ([2]; compound 61 in corn oil, 200 mg/kg oral) was “significantly increased plasma exposure of niclosamide” and the “Liver fat deposits and tissue architecture (H&E sections), high fat diet” value ([6]; high fat diet) was “limited white fatty deposits without the dysplastic tissue architecture”. For the same compound, the “Effect on the liver (H&E sections), chow diet” value ([6]; normal chow diet) was “minimal to no effect”.
For `O=C(Nc1ccc(C(F)(F)F)cc1Cl)c1cc(Cl)ccc1O` [Compound 7, 5-chloro-N-(2-chloro-4-(trifluoromethyl)phenyl)-2-hydroxybenzamide], the “Fzd1-GFP internalization @12.5 μM” value [3] was 5, the IC50 ([1]; HEK293, 8 h) was 560 ± 210 nM and the activity at 2 µM ([4]; HCT-116, 18 h) was 6%. The IC50 [5] was 0.54 ± 0.08 µM and the “Pharmacokinetic properties after oral administration, in words” value [2] was “poor pharmacokinetic properties”.
For `O=C(Nc1ccc([N+](=O)[O-])cc1Cl)c1cc(Cl)ccc1O` [A, 5-chloro-N-(2-chloro-4-nitrophenyl)-2-hydroxybenzamide, reference compound], the “Fzd1-GFP internalization @12.5 μM” value [3] was 5, the IC50 ([1]; HEK293, 8 h) was 340 ± 80 nM and the activity at 2 µM ([4]; HCT-116, 18 h) was 8%. For the same compound, the IC50 [5] was 0.45 ± 0.05 µM and the “Time plasma levels of niclosamide were above the TOPFlash IC50” value [7] was “less than 1 hour”.
In the case of `O=C(Nc1c(Cl)cccc1Cl)c1cc(Cl)ccc1O` [Compound 18, 5-chloro-N-(2,6-dichlorophenyl)-2-hydroxybenzamide], the “Fzd1-GFP internalization @12.5 μM” value [3] is reported as 0, the IC50 ([1]; HEK293, 8 h) is reported as over 12000 nM and the activity at 2 µM ([4]; HCT-116, 18 h) is reported as 100%. The “Anti-proliferation activity, MTS assay, in words” value ([5]; HCT116, up to 10 μM) was “no effect” and the IC50 [5] was over 10 µM.
For `CCOC(=O)Oc1ccc(Cl)cc1C(=O)Nc1ccc(C(F)(F)F)cc1Cl` [Compound 70, 4-Chloro-2-((2-chloro-4-(trifluoromethyl)phenyl)carbamoyl)phenyl ethyl carbonate], the “Fzd1-GFP internalization @12.5 μM” value [3] was 5, the IC50 ([1]; HEK293) was 340 ± 120 nM and the activity at 2 µM ([4]; 18 hours) was 8%. For the same compound, the IC50 [5] was 0.51 ± 0.06 µM.
For `O=C(Nc1ccc(C(F)(F)F)cc1)c1cc(Cl)ccc1O` [Compound 8, 5-chloro-2-hydroxy-N-(4-(trifluoromethyl)phenyl)benzamide], the “Fzd1-GFP internalization @12.5 μM” value [3] was 5, the IC50 ([1]; HEK293, 8 h) was 290 ± 60 nM and the activity at 2 µM ([4]; HCT-116, 18 h) was 7%. For the same compound, the IC50 [5] was 0.67 ± 0.09 µM.
For `CN(C(=O)c1cc(Cl)ccc1O)c1ccc(C(F)(F)F)cc1` [Compound 24, 5-chloro-2-hydroxy-N-methyl-N-(4-(trifluoromethyl)phenyl)benzamide], the “Fzd1-GFP internalization @12.5 μM” value [3] was 0, the IC50 ([1]; HEK293, 8 h) was over 12000 nM and the activity at 2 µM ([4]; HCT-116, 18 h) was 96%. It also gave an IC50 [5] of over 10 µM.
